Earlier results, collected in patent US8372797B2, “Treatment of erectile dysfunction by stem cell therapy” (Creative Medical Health, Inc., priority 2006, dated 2013).

Columns and labels:
[1] = test system: hypercholesterolemic rabbits; settings: two 2.5 microgram doses separated by a 3-week interval into corporal tissue
diabetic rats = settings: intracavernous, gelatin microbeads
[2] = test system: hypercholesterolemic rabbits; settings: systemic administration
[3] = test system: model of rat diabetes associated ED; settings: exogenous administration

| Substance | corporal relaxation and ability to generate NO [1] | erectile function (diabetic rats) | histological changes in the corpus cavernosum [2] | erectile function [3] |
| --- | --- | --- | --- | --- |
| bFGF: basic fibroblast growth factor, a known inducer of angiogenesis | increase corporal relaxation in response to chemical stimuli | protection of erectile function from diabetes mediated onset | favorable histological changes |  |
| superoxide dismutase |  |  |  | increase erectile function |
